Legend:
[1] = target: T1, human recombinant A1-adenosine receptors (Homo sapiens, UniProt P30542); test: Measurement of cAMP enhancement in CHO cells (allosteric enhancement, cAMP content by radioimmunoassay); format: cell-based; details: CHO:huA1 cells, forskolin 1 μM, rolipram 20 μM, CPA 0.01 nM, 6 min at 36° C., control 100%
T1 construct: expressed in transfected cells; host or cells: CHO (Chinese hamster ovary) cells, CHO:huA1, under G-418 selection
T1 sequence (P30542 1-326): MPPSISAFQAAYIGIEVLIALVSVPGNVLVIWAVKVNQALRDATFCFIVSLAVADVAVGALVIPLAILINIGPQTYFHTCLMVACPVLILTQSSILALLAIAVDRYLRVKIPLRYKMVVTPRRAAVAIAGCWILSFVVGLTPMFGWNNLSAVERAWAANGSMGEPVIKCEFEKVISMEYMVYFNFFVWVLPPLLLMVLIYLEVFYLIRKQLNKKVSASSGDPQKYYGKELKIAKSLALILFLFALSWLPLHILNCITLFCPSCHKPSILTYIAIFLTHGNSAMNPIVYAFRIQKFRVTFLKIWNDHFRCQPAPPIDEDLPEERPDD
Description: Chinese hamster ovary cells expressing human recombinant A1-adenosine receptors (CHO:huA1 cells) at a density of approximately 8000 fmol/mg protein were prepared as previously described (Kollias-Baker et al., (1997), J. Pharmacol. Exp. Ther. 281: 761-768) and aliquots of the cells at low passage numbers were frozen and stored in liquid nitrogen. When compounds were tested, an aliquot of CHO:huA1 cells were rapidly thawed after removal from liquid nitrogen, then grown in Ham's F12 culture medium with 10% fetal bovine serum and 0.5 mg/mL of antibiotic G-418 (Shryock, Ozeck, and Belardinelli (1998), Mol. Pharmacol. 53: 886-893). Cells were passaged thrice weekly. Aliquots of cells were placed into 12-well plates with culture medium, serum, and antibiotic for 48 hours, by which time the cells had grown to a confluent monolayer.
Allosteric enhancement was measured as the action of a test compound at different concentrations (0.01, 0.1, 1 and 10 μM) to reduce the cAMP content of CHO:huA1 cells. To initiate an experiment, growth medium was removed from the 12-well plates and cells were washed once with warm Hanks' buffered saline. The wash solution was then removed and replaced with fresh Hanks' solution containing forskolin (1 μM), rolipram (20 μM), N^6-cyclopentyladenosine (CPA, 0.01 nM), adenosine deaminase (2 U/mL), and the test compound. Forskolin was used to stimulate the activity of adenylyl cyclase, rolipram to inhibit cAMP phosphodiesterase, adenosine deaminase to degrade endogenous adenosine, and CPA to cause a small increase of the number of activated adenosine receptors. After 6 min of incubation at 36° C. in the presence of test compound, the incubation solution was removed and hydrochloric acid (final concentration 50 mM) was added to terminate drug action. The content of cAMP in acidified extracts of cells was determined by radioimmunoassay as previously described (Kollias-Baker et al., (1997), J. Pharmacol. Exp. Ther. 281: 761-768). Because the magnitude of the effects of allosteric enhancers on CHO:huA1 cells changed subtly with passage number and differed slightly among different aliquots of cells, the actions of the test compounds and the action of a reference compound (PD 81,723) were assessed in each experiment. The effect of each test compound on cAMP content is presented in the accompanying table as a percentage of the value of cAMP content in the absence of drug (control, 100%). Each value is a mean±standard error of 6 determinations in each of the number of experiments indicated in the “n” column of the table.

## Cc1cccc2c1C(=O)c1c-2csc1N [Example 2, 1-Amino-7-methyl-2-thia-cyclopenta[a]inden-8-one]
other
  melting point: 196 to 198 °C

## Cc1ccc2c(c1)-c1csc(N)c1C2=O [Example 3, 1-Amino-5-methyl-2-thia-cyclopenta[a]inden-8-one]
other
  melting point: 157 to 159 °C

## Nc1scc2c1C(=O)c1c(Cl)cccc1-2 [Example 4, 1-Amino-7-chloro-2-thia-cyclopenta[a]inden-8-one]
other
  melting point: 183 to 185 °C

## Nc1scc2c1C(=O)c1ccc(Cl)cc1-2 [Example 5, 1-Amino-5-chloro-2-thia-cyclopenta[a]inden-8-one]
other
  melting point: 201 to 202 °C

## Nc1scc2c1C(=O)c1c-2ccc(Cl)c1Cl [Example 6, 1-Amino-6,7-dichloro-2-thia-cyclopenta[a]inden-8-one]
other
  melting point: 254 to 255 °C

## Nc1scc2c1C(=O)c1cc(Br)ccc1-2 [Example 21, 1-Amino-6-bromo-2-thia-cyclopenta[a]inden-8-one]
[1]; 0.01 μM test compound
  Change in cAMP Content from Control (Mean ± SEM): −5 ± 4%
[1]; 0.1 μM test compound
  Change in cAMP Content from Control (Mean ± SEM): −15 ± 2%
[1]; 1 μM test compound
  Change in cAMP Content from Control (Mean ± SEM): 4 ± 5%
[1]; 10 μM test compound
  Change in cAMP Content from Control (Mean ± SEM): −16 ± 3%

## Nc1scc2c1C(O)c1ccc(Cl)cc1-2 (stereo not shown) [Example 22, 1-Amino-5-chloro-8-hydroxy-2-thia-cyclopenta[a]indene]
[1]; 0.01 μM test compound
  Change in cAMP Content from Control (Mean ± SEM): 4 ± 2%
[1]; 0.1 μM test compound
  Change in cAMP Content from Control (Mean ± SEM): −1 ± 8%
[1]; 1 μM test compound
  Change in cAMP Content from Control (Mean ± SEM): 0 ± 7%
[1]; 10 μM test compound
  Change in cAMP Content from Control (Mean ± SEM): −17 ± 2%

## CC(=O)Nc1scc2c1C(=O)c1ccc(Cl)cc1-2 [Example 23, 1-Acetylamino-5-chloro-2-thia-cyclopenta[a]inden-8-one]
[1]; 0.01 μM test compound
  Change in cAMP Content from Control (Mean ± SEM): −7 ± 2%
[1]; 0.1 μM test compound
  Change in cAMP Content from Control (Mean ± SEM): 9 ± 9%
[1]; 1 μM test compound
  Change in cAMP Content from Control (Mean ± SEM): −16 ± 3%
[1]; 10 μM test compound
  Change in cAMP Content from Control (Mean ± SEM): −42 ± 1%

## Nc1ccc2c(c1)C(=O)c1c-2csc1N [Example 24, 1,6-Diamino-2-thia-cyclopenta[a]inden-8-one]
[1]; 0.01 μM test compound
  Change in cAMP Content from Control (Mean ± SEM): 5 ± 3%
[1]; 0.1 μM test compound
  Change in cAMP Content from Control (Mean ± SEM): 5 ± 3%
[1]; 1 μM test compound
  Change in cAMP Content from Control (Mean ± SEM): −1 ± 1%
[1]; 10 μM test compound
  Change in cAMP Content from Control (Mean ± SEM): −23 ± 6%

## Nc1scc2c1C(=O)c1ccc(Cl)c(Cl)c1-2 [Example 25, 1-Amino-4,5-dichloro-2-thia-cyclopenta[a]inden-8-one]
[1]; 0.01 μM test compound
  Change in cAMP Content from Control (Mean ± SEM): 0 ± 5%
[1]; 0.1 μM test compound
  Change in cAMP Content from Control (Mean ± SEM): −9 ± 8%
[1]; 1 μM test compound
  Change in cAMP Content from Control (Mean ± SEM): −46 ± 2%
[1]; 10 μM test compound
  Change in cAMP Content from Control (Mean ± SEM): −75 ± 3%

## Nc1sc2c3c1C(=O)c1ccc(Cl)cc1C3CN(Cc1ccccc1)C2 (stereo not shown) [Example 26, 5-Amino-2-benzyl-9-chloro-1,2,3,10b-tetrahydro-6H-benzo[h]thieno[2,3,4-de]isoquinolin-6-one]
[1]; 0.01 μM test compound
  Change in cAMP Content from Control (Mean ± SEM): −4 ± 1%
[1]; 0.1 μM test compound
  Change in cAMP Content from Control (Mean ± SEM): −1 ± 7%
[1]; 1 μM test compound
  Change in cAMP Content from Control (Mean ± SEM): 15 ± 6%
[1]; 10 μM test compound
  Change in cAMP Content from Control (Mean ± SEM): 25 ± 7%

## Nc1scc2c1C(=O)c1c(Cl)cccc1C21SCCCS1 [Example 27, 3-Amino-5-chloro-9-spiro(1,3-dithian-2-yl)-9H-naphtho[2,3-c]thiophene-4-one]
[1]; 0.01 μM test compound
  Change in cAMP Content from Control (Mean ± SEM): 6 ± 3%
[1]; 0.1 μM test compound
  Change in cAMP Content from Control (Mean ± SEM): 8 ± 5%
[1]; 1 μM test compound
  Change in cAMP Content from Control (Mean ± SEM): 8 ± 9%
[1]; 10 μM test compound
  Change in cAMP Content from Control (Mean ± SEM): 0 ± 9%

## Cc1sc(N)c(C(=O)c2cccc(C(F)(F)F)c2)c1C [PD 81,72, reference compound]
[1]; 0.01 μM test compound
  Change in cAMP Content from Control (Mean ± SEM): 4 ± 2%
[1]; 0.1 μM test compound
  Change in cAMP Content from Control (Mean ± SEM): 8 ± 3%
[1]; 1 μM test compound
  Change in cAMP Content from Control (Mean ± SEM): −32 ± 2%
[1]; 10 μM test compound
  Change in cAMP Content from Control (Mean ± SEM): −75 ± 1%
